Reference: PubChem BioAssay (NCI)
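Where inhibition never reached the appropriate level, the endpoint shown equals the highest concentration tested. Otherwise, values were interpolated linearly from a five-concentration, 48-hour dose response in 96-well plates. At the GI50, growth is halved. The concentration for full growth arrest is given as TGI.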

What was measured:
Experiment in all cases: growth of human tumour cells (NCI), 48 h
SF-539 CNS = system: SF-539 CNS
A549 NSCLC = system: A549 NSCLC
CCRF-CEM leukemia = system: CCRF-CEM leukemia
UACC-62 melanoma = system: UACC-62 melanoma
HCC-2998 colon = system: HCC-2998 colon
UO-31 renal = system: UO-31 renal
HOP-92 NSCLC = system: HOP-92 NSCLC
SK-OV-3 ovarian = system: SK-OV-3 ovarian
SF-295 CNS = system: SF-295 CNS
TK-10 renal = system: TK-10 renal

Structure (SMILES)	TGI (SF-539 CNS) [µM]	TGI (A549 NSCLC) [µM]	TGI (CCRF-CEM leukemia) [µM]	TGI (UACC-62 melanoma) [µM]	TGI (HCC-2998 colon) [µM]	TGI (UO-31 renal) [µM]	TGI (HOP-92 NSCLC) [µM]	TGI (SK-OV-3 ovarian) [µM]	TGI (SF-295 CNS) [µM]	TGI (TK-10 renal) [µM]	GI50 (SF-539 CNS) [µM]	GI50 (A549 NSCLC) [µM]	GI50 (CCRF-CEM leukemia) [µM]	GI50 (TK-10 renal) [µM]	GI50 (UACC-62 melanoma) [µM]	GI50 (HCC-2998 colon) [µM]	GI50 (UO-31 renal) [µM]	GI50 (SK-OV-3 ovarian) [µM]	GI50 (SF-295 CNS) [µM]
O=C1c2ccccc2NC1(c1ccccc1)c1c(-c2ccccc2)[nH]c2ccccc12 (centres undefined)	> 100	> 100	> 100	> 100	> 100	> 100	> 100	> 100	> 100										
COc1ccc(NC(=O)CC/C(CC(=O)C(C)(C)C)=N\NC(=O)C(N)=O)cc1	> 100	> 100	> 100	> 100	> 100	> 100	> 100	> 100	> 100										
Cc1ccccc1C(=O)Oc1ccc(O)cc1	> 100	> 100	> 100	> 100	> 100	> 100		> 100	> 100	> 100									
COC(=O)CCC(=O)Nc1cc(Cl)ccc1Cl	> 100	> 100	> 100	> 100	> 100	> 100	> 100	> 100	> 100										
O=C(O)/C(Cl)=C(\Cl)C(=O)NC1C2CC3CC(C2)CC1C3 (centres undefined)	> 100	> 100	> 100	> 100	> 100	> 100	> 100	> 100	> 100										
O=C(O)c1cc2ccccc2oc1=O	> 100	> 100	> 100	> 100	> 100	> 100	> 100		> 100	> 100									
COC(=O)NC1(NC(=O)OC)NC(=O)c2cc(OC)c(OC)c(OC)c2N1	> 100	> 100	> 100	> 100	> 100	> 100		> 100	> 100	> 100									
CC(=O)C1C(=O)NC(=O)C1=O (centres undefined)	> 100			> 100	> 100	> 100	> 100	> 100	> 100	> 100									
O=C(CC1(O)C(=O)Nc2ccccc21)c1ccco1 (centres undefined)	> 100	> 100		> 100		> 100	> 100	> 100	> 100	> 100									
Cc1nc(CN2CCCCC2)c(O)c(=O)[nH]1	> 100	> 100	> 100	> 100		> 100	> 100	> 100	> 100	> 100									
CN(C)c1ncc(-c2ccc(C(F)(F)F)cc2)c(NC2CCCCCC2)n1	55.2	57.1	35.8	35.7	28.8	35.2		95.4	37.4	> 100	21.7	18.2	16.4	40.6	14.7	13.8	12.6	29	17.5
CC(=O)OC1CC2Oc3ccc(C)cc3C(C)(O2)C1=O (centres undefined)	> 100	> 100	> 100	> 100		> 100		> 100	> 100	> 100									
